Laboratory results reported in publication PMC10332445 (Journal of medicinal chemistry, 2023).

Key:
BTK [1] = target: T1, BTK (Homo sapiens, UniProt Q06187); experiment: BTK degradation in Ramos cells by western blot; assay type: cell-based; details: for BTK degradation by parent molecules: GDC-0853 and/or pomalidomide, 3000 nM to 0.15 nM, Figure S2
TMD8 cells [2] = experiment: Apoptosis by Annexin-V/PI flow cytometry, TMD8 cells; assay type: cell-based; details: 48 h; for Induction of apoptosis: TMD8 cells, 3000 nM to 0.15 nM
Mino cells [3] = experiment: Apoptosis by Annexin-V/PI flow cytometry, Mino cells; assay type: cell-based; details: 48 h, 3000 nM to 0.15 nM
BTK [4] = target: T1, BTK; experiment: NanoBRET live-cell target engagement of BTK in HEK293 cells; assay type: cell-based; details: for Hill slope, BTK target engagement: number in parentheses, 37 °C
CRBN = CRBN (Homo sapiens, UniProt Q96SW2); experiment: NanoBRET live-cell target engagement of CRBN in HEK293 cells; assay type: cell-based; details: number in parentheses, 37 °C
CRBN, sequence (Q96SW2 whole entry): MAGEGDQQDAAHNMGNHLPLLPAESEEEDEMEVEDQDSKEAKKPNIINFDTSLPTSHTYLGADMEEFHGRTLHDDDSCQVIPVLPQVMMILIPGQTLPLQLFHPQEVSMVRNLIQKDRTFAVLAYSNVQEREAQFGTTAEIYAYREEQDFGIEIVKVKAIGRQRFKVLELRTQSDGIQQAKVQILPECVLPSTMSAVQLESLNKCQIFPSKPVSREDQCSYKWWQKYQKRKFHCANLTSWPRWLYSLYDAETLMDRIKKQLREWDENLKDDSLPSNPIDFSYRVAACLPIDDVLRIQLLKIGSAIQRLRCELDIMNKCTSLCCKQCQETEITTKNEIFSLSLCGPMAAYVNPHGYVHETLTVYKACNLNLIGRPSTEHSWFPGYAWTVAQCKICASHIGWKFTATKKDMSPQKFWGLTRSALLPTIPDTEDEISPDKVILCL

TMD8 cells [5] = experiment: Cell viability, CellTiter-Glo 2.0, TMD8 cells; assay type: cell-based; details: read-out: TMD8 Cells IC50, 48 h
Mino cells [6] = experiment: Cell viability, CellTiter-Glo 2.0, Mino cells; assay type: cell-based; details: read-out: Mino Cells IC50, 48 h (Figure 6) or 72 h (method)
[7] = tested on: CSK, SYK, FRK, HCK, LYN, BAZ1B, TYK2, and Fes/Fps; experiment: Label-free proteomics in TMD8 cells: other kinases; assay type: cell-based, human; details: 111 nM, 6 h
IKZF1 and IKZF3 = experiment: Label-free proteomics in TMD8 cells: neo-substrates IKZF1/3; assay type: cell-based, human; details: 111 nM, 6 h
GSPT1 = GSPT1 (Homo sapiens, UniProt P15170); experiment: Label-free proteomics in TMD8 cells: GSPT1; assay type: cell-based; details: 111 nM, 6 h
GSPT1, sequence (Q96SW2 whole entry partner): as the sequence (Q96SW2 whole entry) above
GSPT1, sequence (Q16531 whole entry partner): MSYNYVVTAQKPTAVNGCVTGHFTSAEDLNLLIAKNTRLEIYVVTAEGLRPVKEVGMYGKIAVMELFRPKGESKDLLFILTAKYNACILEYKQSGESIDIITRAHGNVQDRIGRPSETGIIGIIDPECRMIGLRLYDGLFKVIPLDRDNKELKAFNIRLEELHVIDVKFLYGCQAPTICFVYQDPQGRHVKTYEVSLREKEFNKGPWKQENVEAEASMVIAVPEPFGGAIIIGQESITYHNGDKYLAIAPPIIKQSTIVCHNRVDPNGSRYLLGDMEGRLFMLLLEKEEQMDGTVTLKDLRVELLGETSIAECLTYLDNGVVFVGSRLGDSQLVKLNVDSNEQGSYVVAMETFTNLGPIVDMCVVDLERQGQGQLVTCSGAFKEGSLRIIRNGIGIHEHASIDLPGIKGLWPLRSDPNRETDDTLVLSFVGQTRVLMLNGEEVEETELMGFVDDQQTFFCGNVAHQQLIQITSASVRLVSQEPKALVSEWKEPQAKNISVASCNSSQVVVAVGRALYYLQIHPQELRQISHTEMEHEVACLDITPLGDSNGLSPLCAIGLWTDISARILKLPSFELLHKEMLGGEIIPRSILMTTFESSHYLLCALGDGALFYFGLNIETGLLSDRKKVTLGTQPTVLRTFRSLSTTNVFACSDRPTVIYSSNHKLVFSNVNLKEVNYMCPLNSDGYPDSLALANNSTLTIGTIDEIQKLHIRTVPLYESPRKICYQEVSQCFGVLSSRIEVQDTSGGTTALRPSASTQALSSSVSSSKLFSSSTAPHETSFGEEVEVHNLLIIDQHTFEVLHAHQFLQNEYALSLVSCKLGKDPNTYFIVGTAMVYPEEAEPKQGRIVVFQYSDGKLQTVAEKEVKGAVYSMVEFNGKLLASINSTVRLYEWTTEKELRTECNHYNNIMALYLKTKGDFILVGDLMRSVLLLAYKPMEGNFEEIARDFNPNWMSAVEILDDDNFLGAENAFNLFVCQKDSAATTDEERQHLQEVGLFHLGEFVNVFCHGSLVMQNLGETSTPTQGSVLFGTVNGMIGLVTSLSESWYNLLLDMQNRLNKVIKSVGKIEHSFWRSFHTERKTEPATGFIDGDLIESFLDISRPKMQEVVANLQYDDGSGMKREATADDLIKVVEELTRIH
GSPT1, sequence (P15170 whole entry): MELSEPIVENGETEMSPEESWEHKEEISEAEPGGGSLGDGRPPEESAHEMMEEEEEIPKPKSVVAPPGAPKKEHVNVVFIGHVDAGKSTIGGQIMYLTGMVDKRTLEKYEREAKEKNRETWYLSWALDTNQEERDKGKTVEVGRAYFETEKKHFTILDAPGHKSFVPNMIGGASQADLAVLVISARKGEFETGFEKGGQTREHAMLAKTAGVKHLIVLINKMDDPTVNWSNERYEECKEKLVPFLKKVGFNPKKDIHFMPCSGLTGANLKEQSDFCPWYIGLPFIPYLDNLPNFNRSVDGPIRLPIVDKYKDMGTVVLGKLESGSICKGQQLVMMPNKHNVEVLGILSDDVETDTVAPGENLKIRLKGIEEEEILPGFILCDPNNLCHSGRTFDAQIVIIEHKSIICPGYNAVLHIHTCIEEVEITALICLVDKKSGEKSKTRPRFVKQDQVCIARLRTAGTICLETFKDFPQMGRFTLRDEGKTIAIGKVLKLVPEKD

[8] = target: ternary complex between BTK and CRBN (Homo sapiens, UniProt Q06187+Q96SW2); experiment: NanoBRET ternary complex formation assay in HEK293 cells; assay type: cell-based; details: for Ternary complex formation (in words): live-cell NanoBRET
ternary complex between BTK and CRBN, sequence (Q06187 whole entry): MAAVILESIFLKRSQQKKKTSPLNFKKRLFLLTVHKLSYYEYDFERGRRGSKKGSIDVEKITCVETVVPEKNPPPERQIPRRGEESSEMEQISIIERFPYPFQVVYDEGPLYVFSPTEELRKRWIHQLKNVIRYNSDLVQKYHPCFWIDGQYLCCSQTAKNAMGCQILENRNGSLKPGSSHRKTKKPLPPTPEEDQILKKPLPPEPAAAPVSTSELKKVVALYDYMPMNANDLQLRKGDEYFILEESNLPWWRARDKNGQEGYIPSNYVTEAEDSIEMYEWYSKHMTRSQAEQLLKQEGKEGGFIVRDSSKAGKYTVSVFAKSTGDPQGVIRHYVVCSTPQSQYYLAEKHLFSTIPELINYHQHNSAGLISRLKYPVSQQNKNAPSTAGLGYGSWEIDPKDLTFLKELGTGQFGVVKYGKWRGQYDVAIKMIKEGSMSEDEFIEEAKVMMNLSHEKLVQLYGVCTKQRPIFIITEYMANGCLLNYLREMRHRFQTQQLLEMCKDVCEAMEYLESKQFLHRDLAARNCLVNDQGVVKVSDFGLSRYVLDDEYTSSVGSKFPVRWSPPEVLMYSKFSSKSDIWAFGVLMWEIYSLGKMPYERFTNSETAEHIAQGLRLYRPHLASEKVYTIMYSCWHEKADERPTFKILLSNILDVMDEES
ternary complex between BTK and CRBN, sequence (Q96SW2 whole entry): as the sequence (Q96SW2 whole entry) above

BCR signaling pathway = BCR signaling pathway western blots in TMD8 and Mino cells; assay type: cell-based; details: 48 h, stimulated with anti-human IgM
[9] = tested on: caspase-3, PARP, Bcl-2, Mcl-1; experiment: Apoptosis pathway proteins by western blot in TMD8 and Mino cells; assay type: cell-based; details: 48 h
BTK [10] = target: T1, BTK; experiment: BTK degradation in seven B-cell malignant cell lines; assay type: cell-based; details: Figure S4

T1 sequence (Q06187 whole entry): as the sequence (Q06187 whole entry) above

Row | Molecule | Induction of apoptosis (TMD8 cells [2]) | Induction of apoptosis (Mino cells [3]) | Hill slope, BTK target engagement (BTK [4]) | Hill slope, CRBN target engagement (CRBN) | Effect on abundance of other kinases [7] | Degradation of neo-substrates IKZF1 and IKZF3 (IKZF1 and IKZF3) | Effect on levels of GSPT1 (GSPT1) | also measured
1 | Nc1cccc2c1C(=O)N(C1CCC(=O)NC1=O)C2=O (stereo not shown) [Pomalidomide, pomalidomide, reference compound] | little effect | induced apoptosis in Mino cells in a dose-dependent manner | – | – | – | – | – | BTK degradation by parent molecules (BTK [1]; Ramos cells): no BTK degradation was observed
2 | C[C@H]1CN(C(=O)CCCCCCCCCCCNc2cccc3c2C(=O)N(C2CCC(=O)NC2=O)C3=O)CCN1c1ccc(Nc2cc(-c3ccnc(N4CCn5c(cc6c5CC(C)(C)C6)C4=O)c3CO)cn(C)c2=O)nc1 (stereo partly drawn) [PTD15, 4-((12-((S)-4-(6-((2’-(7,7-dimethyl-1-oxo-1,3,4,6,7,8-hexahydro-2H-cyclopenta[4,5]pyrrolo[1,2-a]pyrazin-2-yl)-3’-(hydroxymethyl)-1-methyl-6-oxo-1,6-dihydro-[3,4’-bipyridin]-5-yl)amino)pyridin-3-yl)-3-methylpiperazin-1-yl)-12-oxododecyl)amino)-2-(2,6-dioxopiperidin-3-yl)isoindoline-1,3-dione] | – | – | 1.3 | 0.5 | – | – | – | Fold less potent than GDC-0853 at engaging BTK (BTK [4]; NanoBRET): 250 fold
3 | 4-((2-(2-(2-(2-azidoethoxy)ethoxy)ethoxy)ethyl)amino)-2-(2,6-dioxopiperidin-3-yl)isoindoline-1,3-dione [P13I, reference compound] | – | – | – | – | significant degradation of some off-targets, specifically, CSK and FRK | degrade | did not affect the levels | IC50 (TMD8 cells [5]): 15 ± 2.8 nM; IC50 (Mino cells [6]): 10.4 ± 2.4 nM
4 | C[C@H]1CN(C(=O)COc2cccc3c2C(=O)N(C2CCC(=O)NC2=O)C3=O)CCN1c1ccc(Nc2cc(-c3ccnc(N4CCn5c(cc6c5CC(C)(C)C6)C4=O)c3CO)cn(C)c2=O)nc1 (stereo partly drawn) [PTD14, 4-(2-((S)-4-(6-((2’-(7,7-dimethyl-1-oxo-1,3,4,6,7,8-hexahydro-2H-cyclopenta[4,5]pyrrolo[1,2-a]pyrazin-2-yl)-3’-(hydroxymethyl)-1-methyl-6-oxo-1,6-dihydro-[3,4’-bipyridin]-5-yl)amino)pyridin-3-yl)-3-methylpiperazin-1-yl)-2-oxoethoxy)-2-(2,6-dioxopiperidin-3-yl)isoindoline-1,3-dione] | – | – | – | – | did not affect the abundance of other kinases | no degradation | did not affect the levels | –
5 | Cc1ncsc1-c1ccc(CNC(=O)[C@@H]2C[C@@H](O)CN2C(=O)[C@@H](NC(=O)COCCOCCCCCCC(=O)N2CCN(c3ccc(Nc4cc(-c5ccnc(N6CCn7c(cc8c7CC(C)(C)C8)C6=O)c5CO)cn(C)c4=O)nc3)[C@@H](C)C2)C(C)(C)C)cc1 [PTD3, (2S,4R)-1-((S)-2-(2-(2-((7-((S)-4-(6-((2’-(7,7-dimethyl-1-oxo-1,3,4,6,7,8-hexahydro-2H-cyclopenta[4,5]pyrrolo[1,2-a]pyrazin-2-yl)-3’-(hydroxymethyl)-1-methyl-6-oxo-1,6-dihydro-[3,4’-bipyridin]-5-yl)amino)pyridin-3-yl)-3-methylpiperazin-1-yl)-7-oxoheptyl)oxy)ethoxy)acetamido)-3,3-dimethylbutanoyl)-4-hydroxy-N-(4-(4-methylthiazol-5-yl)benzyl)pyrrolidine-2-carboxamide] | – | – | – | – | – | – | – | BTK degradation (VHL-based PROTAC) (BTK [1]; Ramos and JeKo-1 cell lines, 17 h, concentrations lower than 3000 nM, Figure S1): no degradation was observed
6 | C[C@H]1CN(C(=O)CNc2cccc3c2CN(C2CCC(=O)NC2=O)C3=O)CCN1c1ccc(Nc2cc(-c3ccnc(N4CCn5c(cc6c5CC(C)(C)C6)C4=O)c3CO)cn(C)c2=O)nc1 (stereo partly drawn) [PTD12, 3-(4-((2-((S)-4-(6-((2’-(7,7-dimethyl-1-oxo-1,3,4,6,7,8-hexahydro-2H-cyclopenta[4,5]pyrrolo[1,2-a]pyrazin-2-yl)-3’-(hydroxymethyl)-1-methyl-6-oxo-1,6-dihydro-[3,4’-bipyridin]-5-yl)amino)pyridin-3-yl)-3-methylpiperazin-1-yl)-2-oxoethyl)amino)-1-oxoisoindolin-2-yl)piperidine-2,6-dione] | – | – | – | – | – | – | – | Decrease in degradation activity compared to PTD10 (BTK [1]; DC50 ratio): ~ 8 fold
7 | C[C@H]1CN(C(=O)CNc2cccc3c2C(=O)N(C2CCC(=O)NC2=O)C3=O)CCN1c1ccc(Nc2cc(-c3ccnc(N4CCn5c(cc6c5CC(C)(C)C6)C4=O)c3CO)cn(C)c2=O)nc1 (stereo partly drawn) [PTD10, 4-((2-((S)-4-(6-((2’-(7,7-dimethyl-1-oxo-1,3,4,6,7,8-hexahydro-2H-cyclopenta[4,5]pyrrolo[1,2-a]pyrazin-2-yl)-3’-(hydroxymethyl)-1-methyl-6-oxo-1,6-dihydro-[3,4’-bipyridin]-5-yl)amino)pyridin-3-yl)-3-methylpiperazin-1-yl)-2-oxoethyl)amino)-2-(2,6-dioxopiperidin-3-yl)isoindoline-1,3-dione] | induce apoptosis in a dose-dependent manner | induce apoptosis in a dose-dependent manner | 1.9 | 1.0 | did not affect the abundance of other kinases | degrade | did not affect the levels | Concentration at which Hook effect was observed (BTK [1]; BTK degradation, Figure 3): > 333 nM; BTK degradation on co-treatment with competitor (BTK [1]; Ramos cells, 111 nM PTD10 with 1 μM GDC-0853 or 20 μM iberdomide (CC-220), 17 h): BTK degradation was completely blocked; BTK degradation after pre-treatment with bortezomib or MLN-4924 (BTK [1]; Ramos cells, pre-treated 2 h, then 111 nM PTD10 for 4 h): inhibition of BTK degradation; Ternary complex formation (in words) [8]: prominent ternary complex formation; Ternary Complex Formation (maximum) ([8]; maximum ternary complex formation setting the BRET ratio for PTD10 at 100%): 100%; Concentration at which robust apoptosis was detected (TMD8 cells [2]; TMD8 and Mino cell lines): 333 nM; Effect on BCR signaling pathway (p-PLCγ2, p-BTK, p-AKT, p-NF-κB, PLCγ2, AKT, NF-κB) (BCR signaling pathway): Robust downregulation was observed; Levels of Bcl-2 and Mcl-1 [9]: significant down-regulation; Levels of cleaved-PARP and cleaved caspase-3 [9]: increase; BTK degradation in B-cell malignant cell lines (BTK [10]): potent degradation effects
8 | C[C@H]1CN(C2COC2)CCN1c1ccc(Nc2cc(-c3ccnc(N4CCn5c(cc6c5CC(C)(C)C6)C4=O)c3CO)cn(C)c2=O)nc1 [GDC-0853, fenebrutinib, reference compound] | a dose-dependent effect was observed | did not cause apoptosis | – | – | – | – | – | BTK degradation by parent molecules (BTK [1]; Ramos cells): no BTK degradation was observed; Effect on BCR signaling pathway (p-PLCγ2, p-BTK, p-AKT, p-NF-κB, PLCγ2, AKT, NF-κB) (BCR signaling pathway): less prominent
9 | C[C@H]1CN(C(=O)c2cccc3c2C(=O)N(C2CCC(=O)NC2=O)C3=O)CCN1c1ccc(Nc2cc(-c3ccnc(N4CCn5c(cc6c5CC(C)(C)C6)C4=O)c3CO)cn(C)c2=O)nc1 (stereo partly drawn) [PTD13, 4-((S)-4-(6-((2’-(7,7-dimethyl-1-oxo-1,3,4,6,7,8-hexahydro-2H-cyclopenta[4,5]pyrrolo[1,2-a]pyrazin-2-yl)-3’-(hydroxymethyl)-1-methyl-6-oxo-1,6-dihydro-[3,4’-bipyridin]-5-yl)amino)pyridin-3-yl)-3-methylpiperazine-1-carbonyl)-2-(2,6-dioxopiperidin-3-yl)isoindoline-1,3-dione] | – | – | 1.4 | 1.0 | – | – | – | Ternary complex formation (in words) [8]: no ternary complex was observed
